Experimental findings from US9624243B2, “Heterocyclic compounds and methods of their use” (Novartis AG, priority 2012, dated 2017) are described below.

Each structure is given as a SMILES string.

Sequence of AT2 receptor (P50052 whole entry, species assumed): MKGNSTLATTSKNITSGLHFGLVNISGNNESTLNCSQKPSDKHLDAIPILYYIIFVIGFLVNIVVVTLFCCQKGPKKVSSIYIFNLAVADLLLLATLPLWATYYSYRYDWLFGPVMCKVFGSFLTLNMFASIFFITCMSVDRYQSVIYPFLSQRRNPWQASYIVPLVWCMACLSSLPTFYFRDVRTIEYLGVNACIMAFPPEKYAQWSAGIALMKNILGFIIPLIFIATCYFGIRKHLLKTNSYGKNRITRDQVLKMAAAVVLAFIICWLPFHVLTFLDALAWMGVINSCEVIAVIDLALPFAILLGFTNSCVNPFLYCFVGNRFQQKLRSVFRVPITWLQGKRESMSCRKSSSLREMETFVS

The target of the test is AT2 receptor (Homo sapiens (Human), UniProt P50052). The test is described as follows: AT2 Receptor Binding. To be noted: HEK293 AT2 receptor transient cell membranes, [125I]-CGP42112A. The procedure:
1. Trypsin-EDTA (for Preparation of 100 mL)
• Dissolve trypsin in 2% EDTA and PBS completely; sterilize the solution by passing through a […] membrane filter; store at 4° C.
2. DMEM Medium (for Preparation of 1 L) • The powder was dissolved into 950 mL of distilled water with gentle stirring until the solution becomes clear. • Add. NaHCO3 1.176 g for DMEM medium. • Adjust pH of medium to 0.2˜0.3 below final working pH using 1 M NaOH or 1 M • HCl. Add slowly with stirring. • Dilute to 1 liter with ddH2O. • Sterilize the medium immediately by filtration. • Store at 4° C.
3. TE Buffer • 20 mM Tris-HCl, pH 7.4, • 5 mM EDTA
4. Binding Assay Buffer • 50 mM Hepes, pH 7.4 • 5 mM MgCl2 • 1 mM CaCl2 • 0.2% BSA
5. Wash Buffer • 50 mM Hepes, pH 7.4 Procedures for HEK293AT2 Receptor Transient Cell Transfection • Cells were plated into 150 mm dish at 50% density for transient transfection. Cells were ready for transfection after overnight incubation (the confluence reaches around 80%). • 75 μL Lipofectamine™2000 diluted in 6.25 mL OptiMEM I Reduced Serum Medium, was mixed gently, and incubated at room temperature for 5 minutes. 50 μg expression plasmid DNA diluted in 6.25 mL OptiMEM I Reduced Serum Medium without serum was mixed gently. • After the 5 minute incubation, the diluted DNA was combined with the diluted Lipofectamine™2000 (total volume is 12.5 mL). The mixture was mixed gently and incubated for 30 minutes at room temperature to allow the DNA-Lipofectamine™2000 complexes to form. • The 12.5 mL DNA-Lipofectamine™2000 complexes were added into the 150 mm dish and mixed gently by rocking the dish back and forth. • The cells were incubated at 37° C. with 5% CO2 for 48 hours. Cells were collected and stored frozen at −80° C. Procedures for HEK293AT2 Receptor Cell Membrane Preparation • Frozen HEK293AT2 receptor (transient transfected) cells were homogenized in ice cold TE buffer for 10s. • The homogenate was centrifuged at 25,000 g for 30 minutes. • The pellet was resuspended in ice cold tissue buffer. • Protein concentrations were determined using Bradford assay method with BSA as standard. • The membrane protein was frozen under −80° C. Compound Preparation
Solutions of all compounds were prepared bymicroplate liquid handling equipment such as Janus or Precision 2000. Compounds, dissolved in DMSO were stored in a Freezer. Compounds were prepared from 30 mM in 100% DMSO.
Step 1: Dose Plate Preparation (96 Well Plate)
• Add the 3 μL [30 mM] compound stock to column 1 on the plate. • Add 15 μL of 100% DMSO to column 1. • Add 10.81 μL of 100% DMSO to column 2-12. • Transfer 5 μL from column 1 into column 2 (half log dilution). • Transfer 5 μL from column 2 into column 3 (half log dilution). • Transfer 5 μL from column 3 into column 4 (half log dilution). • Transfer 5 μL from column 4 into column 5 (half log dilution). • Transfer 5 μL from column 5 into column 6 (half log dilution). • Transfer 5 μL from column 6 into column 7 (half log dilution). • Transfer 5 μL from column 7 into column 8 (half log dilution). • Transfer 5 μL from column 8 into column 9 (half log dilution). • Transfer 5 μL from column 9 into column 10 (half log dilution) • Transfer 5 μL from column 10 into column 11 (half log dilution) • Transfer 5 μL from column 11 into column 12 (half log dilution).
All the compounds were diluted using Precision 2000 microplate liquid handling equipment. The top concentration of compound was 5 mM with 100% DMSO.
Step 2: Working Plate Preparation (96 Well Plate)
• Compounds were diluted 50-fold with buffer. • 49 μL buffer was added to the well of 96 well plate. • 1 μL compound solution from dose plate was transferred to the corresponding well of working plate. • The top concentration of compound was 100 μM with 2% DMSO. Step 3: Assay Plate Preparation (96 Well Plate)
15 μL of compound solution was transferred from each well of working plate to the well of assay plate by Janus.
Consider `O=C(O)[C@@H]1C[C@H](OC[C@@H]2C[C@H]2c2ccccc2)CN1C(=O)C(c1ccccc1)c1ccccc1` (mixture of isomers) [Compound 16, (2S,4S)-1-(2,2-diphenylacetyl)-4-(((1R,2R)-2-phenylcyclopropyl)methoxy)pyrrolidine-2-carboxylic acid and (2S,4S)-1-(2,2-diphenylacetyl)-4-(((1S,2S)-2-phenylcyclopropyl)methoxy)pyrrolidine-2-carboxylic acid], for which the IC50 (as a rule, the concentration that gives 50% inhibition) was determined as 6650 nM.
`O=C(O)[C@@H]1C[C@H](OC[C@@H]2C[C@@H]2c2ccccc2)CN1C(=O)C(c1ccccc1)c1ccccc1` (mixture of isomers) [Compound 17, (2S,4S)-1-(2,2-diphenylacetyl)-4-(((1R,2S)-2-phenylcyclopropyl)methoxy)pyrrolidine-2-carboxylic acid and (2S,4S)-1-(2,2-diphenylacetyl)-4-(((1S,2R)-2-phenylcyclopropyl)methoxy)pyrrolidine-2-carboxylic acid] gave an IC50 of 3970 nM.
The compound `CN(CCCc1ccccc1)[C@@H]1CN(C(=O)C(c2ccccc2)c2ccccc2)C[C@H]1C(=O)O` (mixture of isomers) [Compound 67, (3R,4S)-1-(2,2-diphenylacetyl)-4-(methyl(3-phenylpropyl)amino)pyrrolidine-3-carboxylic acid and (3S,4R)-1-(2,2-diphenylacetyl)-4-(methyl(3-phenylpropyl)amino)pyrrolidine-3-carboxylic acid] yielded an IC50 of 3660 nM.
In turn, `O=C(O)[C@@H]1[C@@H](OCCCc2ccccc2)CN1C(=O)C(c1ccccc1)c1ccccc1` (mixture of isomers) [Compound 142, (2S,3S)-1-(2,2-diphenylacetyl)-3-(3-phenylpropoxy)-azetidine-2-carboxylic acid and (2R,3R)-1-(2,2-diphenylacetyl)-3-(3-phenylpropoxy)-azetidine-2-carboxylic acid] displayed an IC50 of 993 nM.
The value for `O=C(O)[C@H]1[C@H](OCCCc2ccccc2)CN1C(=O)C(c1ccccc1)c1ccccc1` (mixture of isomers) [Compound 143, (2R,3R)-3-(3-phenylpropoxy)-1-(2,2-diphenylacetyl)-azetidine-2-carboxylic acid and (2S,3S)-3-(3-phenylpropoxy)-1-(2,2-diphenylacetyl)-azetidine-2-carboxylic acid] was 372 nM; that for `O=C(O)[C@@H]1C[C@H](N2CCCC2Cc2ccccc2)CN1C(=O)C(c1ccccc1)c1ccccc1` (single isomer, unassigned) [Compound 61-A, (3′S,5′S)-2-benzyl-V-(2,2-diphenylacetyl)-[1,3′-bipyrrolidine]-5′-carboxylic acid] was 83.3 nM; that for `O=C(O)[C@@H]1C[C@H](N2CCCC2Cc2ccccc2)CN1C(=O)C(c1ccccc1)c1ccccc1` (single isomer, unassigned) [Compound 61-B, (3′S,5′S)-2-benzyl-V-(2,2-diphenylacetyl)-[1,3′-bipyrrolidine]-5′-carboxylic acid] was 107 nM.
As for `O=C(O)[C@@H]1C[C@H](N2CCCCC2Cc2ccccc2)CN1C(=O)C(c1ccccc1)c1ccccc1` (single isomer, unassigned) [Compound 70-A], the IC50 was 49.1 nM.
As for `O=C(O)[C@@H]1C[C@H](N2CCCCC2Cc2ccccc2)CN1C(=O)C(c1ccccc1)c1ccccc1` (single isomer, unassigned) [Compound 70-B], the half-inhibitory concentration (IC50) is 1340 nM.
The compound `O=C(O)[C@@H]1C[C@H](OCc2ccccc2)CN1C(=O)C(c1ccccc1)c1ccccc1` [Compound 2, (2S,4S)-4-(benzyloxy)-1-(2,2-diphenylacetyl)pyrrolidine-2-carboxylic acid] yielded an IC50 of 114 nM.
The value for `O=C(O)[C@@H]1C[C@@H](OCc2ccccc2)CN1C(=O)C(c1ccccc1)c1ccccc1` [Compound 3, (2S,4R)-4-(benzyloxy)-1-(2,2-diphenylacetyl)pyrrolidine-2-carboxylic acid] was 193 nM.
